From patent publication US20070128217A1 (priority 2003, published 2007)

How the values were obtained:
[1] = tested on: antibodies in sera from SARS patients (sera 1a, 1b, 2, 6, 37, 62, London, SARS-yellow, SARS-green); format: binding, human; parameters: Binding of serum 6 to linear peptides of protein X1 of SARS-CoV Urbani / Binding of serum 37 to linear peptides of protein X1 of SARS-CoV Urbani / Binding of serum 6 to looped/cyclic peptide (PEPSCAN-ELISA) / Binding of serum 37 to looped/cyclic peptide (PEPSCAN-ELISA) / Binding of serum 37 to looped/cyclic peptides of protein X1 of SARS-CoV Urbani / Binding of serum 6 to linear peptides of protein X2 / Binding of serum 37 to linear peptides of protein X2 / Binding of serum 37 to looped/cyclic peptides of protein X2 of SARS-CoV Urbani / Binding of serum 6 to linear peptides of protein M of SARS-CoV Urbani / Binding of serum 37 to linear peptides of protein M of SARS-CoV Urbani / Binding of serum 6 to looped/cyclic peptides of protein M of SARS-CoV Urbani / Binding of serum 37 to looped/cyclic peptides of protein M of SARS-CoV Urbani / Binding of serum 6 to linear peptides of protein X3 of SARS-CoV Urbani / Binding of serum 37 to linear peptides of protein X3 of SARS-CoV Urbani / Binding of serum 37 to looped/cyclic peptides of protein X3 of SARS-CoV Urbani / Binding of serum 6 to linear peptides of protein X4 of SARS-CoV Urbani / Binding of serum 37 to linear peptides of protein X4 of SARS-CoV Urbani / Binding of serum 37 to looped/cyclic peptides of protein X4 of SARS-CoV Urbani / Binding of serum 6 to linear peptides of protein X5 of SARS-CoV Urbani / Binding of serum 37 to linear peptides of protein X5 of SARS-CoV Urbani / Binding of serum 37 to looped/cyclic peptides of protein X5 of SARS-CoV Urbani / Binding of serum 6 to linear peptides of protein N of SARS-CoV Urbani / Binding of serum 37 to linear peptides of protein N of SARS-CoV Urbani / Binding of serum 6 to linear peptide (PEPSCAN-ELISA) / Binding of serum 1a to looped/cyclic peptides of protein N of SARS-CoV Urbani / Binding of serum 1b to looped/cyclic peptides of protein N of SARS-CoV Urbani / Binding of serum 2 to looped/cyclic peptides of protein N of SARS-CoV Urbani / Binding of serum 6 to looped/cyclic peptides of protein N of SARS-CoV Urbani / Binding of serum 37 to looped/cyclic peptides of protein N of SARS-CoV Urbani / Binding of serum 62 to looped/cyclic peptides of protein N of SARS-CoV Urbani / Binding of serum London to looped/cyclic peptides of protein N of SARS-CoV Urbani / Binding of serum SARS-green to looped/cyclic peptides of protein N of SARS-CoV Urbani: unit not given here
[2] = tested on: control sera (pooled serum of ten healthy LUMC hospital workers; commercial negative donor pooled serum from the Dutch bloodbank); format: binding, human; parameters: Binding of Control serum LUMC to linear peptides / Binding of Control serum Blood-bank to linear peptides / Binding of Control serum LUMC to looped peptides / Binding of Control Serum Blood-Bank to Looped peptides / Binding of Control serum LUMC to linear peptides of the protein M of SARS-CoV Urbani / Binding of Control serum Blood-bank to linear peptides of the protein M of SARS-CoV Urbani / Binding of Control serum LUMC to looped peptides of the protein M of SARS-CoV Urbani / Binding of Control Serum Blood-Bank to Looped peptides of the protein M of SARS-CoV Urbani: unit not given here
[3] = tested on: rabbit serum obtained by immunizing a rabbit with the SARS-CoV strain Frankfurt 1; format: binding; parameters: Binding of a rabbit serum to linear peptides / Binding of a rabbit serum to looped peptides / Rabbit serum linear peptides / Rabbit serum looped peptides / Binding of a rabbit serum to linear peptides of protein N of SARS-CoV Urbani (Rabbit serum linear peptides) / Binding of a rabbit serum to looped/cyclic peptides of protein N of SARS-CoV Urbani (Rabbit serum looped peptides): unit not given here

LQFAYSNRNRFLYII
0.6: Binding of serum 2 to linear peptides of protein M of SARS-CoV Urbani [1] | Binding of serum 37 to looped/cyclic peptides of protein M of SARS-CoV Urbani [1] | Binding of serum 62 to looped/cyclic peptides of protein M of SARS-CoV Urbani [1] | Binding of Control Serum Blood-Bank to Looped peptides of the protein M of SARS-CoV Urbani [2] | Binding of Control serum Blood-bank to linear peptides of the protein M of SARS-CoV Urbani [2] | Binding of Control serum LUMC to looped peptides of the protein M of SARS-CoV Urbani [2] | Rabbit serum linear peptides [3]
0.7: Binding of serum 1a to linear peptides of protein M of SARS-CoV Urbani [1] | Binding of serum 1a to looped/cyclic peptides of protein M of SARS-CoV Urbani [1] | Binding of serum 6 to looped/cyclic peptides of protein M of SARS-CoV Urbani [1] | Binding of serum 37 to linear peptides of protein M of SARS-CoV Urbani [1] | Binding of serum 62 to linear peptides of protein M of SARS-CoV Urbani [1]
0.4: Binding of serum SARS-green to looped/cyclic peptides of protein M of SARS-CoV Urbani [1] | Binding of Control serum LUMC to linear peptides of the protein M of SARS-CoV Urbani [2] | Rabbit serum looped peptides [3]
0.3: Binding of serum 6 to linear peptides of protein M of SARS-CoV Urbani [1]
0.0: Binding of serum SARS-yellow to linear peptides of protein M of SARS-CoV Urbani [1]
0.5: Binding of serum 1b to linear peptides of protein M of SARS-CoV Urbani [1] | Binding of serum 1b to looped/cyclic peptides of protein M of SARS-CoV Urbani [1] | Binding of serum 2 to looped/cyclic peptides of protein M of SARS-CoV Urbani [1] | Binding of serum SARS-yellow to looped/cyclic peptides of protein M of SARS-CoV Urbani [1]
0.2: Binding of serum London to linear peptides of protein M of SARS-CoV Urbani [1] | Binding of serum London to looped/cyclic peptides of protein M of SARS-CoV Urbani [1] | Binding of serum SARS-green to linear peptides of protein M of SARS-CoV Urbani [1]

LNKRWQLALYKGFQF
0.1: Binding of serum SARS-green to looped/cyclic peptide (PEPSCAN-ELISA) [1]
0.5: Binding of serum 2 to looped/cyclic peptide (PEPSCAN-ELISA) [1] | Binding of serum 6 to looped/cyclic peptide (PEPSCAN-ELISA) [1] | Binding of serum 37 to looped/cyclic peptide (PEPSCAN-ELISA) [1]
0.3: Binding of serum London to linear peptides of protein X1 of SARS-CoV Urbani [1] | Binding of serum London to looped/cyclic peptide (PEPSCAN-ELISA) [1] | Binding of serum SARS-green to linear peptides of protein X1 of SARS-CoV Urbani [1] | Binding of serum SARS-yellow to linear peptides of protein X1 of SARS-CoV Urbani [1]
0.6: Binding of serum 1a to linear peptides of protein X1 of SARS-CoV Urbani [1] | Binding of serum 1a to looped/cyclic peptide (PEPSCAN-ELISA) [1] | Binding of serum 37 to linear peptides of protein X1 of SARS-CoV Urbani [1] | Binding of serum 62 to linear peptides of protein X1 of SARS-CoV Urbani [1] | Binding of serum 62 to looped/cyclic peptide (PEPSCAN-ELISA) [1] | Binding of Control Serum Blood-Bank to Looped peptides [2] | Binding of Control serum LUMC to linear peptides [2] | Binding of Control serum LUMC to looped peptides [2]
0.4: Binding of serum 1b to looped/cyclic peptide (PEPSCAN-ELISA) [1] | Binding of serum SARS-yellow to looped/cyclic peptide (PEPSCAN-ELISA) [1]
0.8: Binding of serum 2 to linear peptides of protein X1 of SARS-CoV Urbani [1] | Binding of serum 6 to linear peptides of protein X1 of SARS-CoV Urbani [1] | Binding of Control serum Blood-bank to linear peptides [2]
0.7: Binding of serum 1b to linear peptides of protein X1 of SARS-CoV Urbani [1]
recognized: Recognition of the peptide by the rabbit serum [3]

NKFALTCTSTHFAFA
0.5: Binding of serum 1b to linear peptides of protein X4 of SARS-CoV Urbani [1] | Binding of serum SARS-yellow to linear peptides of protein X4 of SARS-CoV Urbani [1] | Binding of Control serum LUMC to linear peptides [2] | Rabbit serum linear peptides [3] | Rabbit serum looped peptides [3]
0.8: Binding of serum 2 to looped/cyclic peptides of protein X4 of SARS-CoV Urbani [1] | Binding of serum SARS-green to looped/cyclic peptides of protein X4 of SARS-CoV Urbani [1] | Binding of Control serum LUMC to looped peptides [2]
0.4: Binding of serum 1b to looped/cyclic peptides of protein X4 of SARS-CoV Urbani [1] | Binding of serum 2 to linear peptides of protein X4 of SARS-CoV Urbani [1] | Binding of serum SARS-green to linear peptides of protein X4 of SARS-CoV Urbani [1]
0.7: Binding of serum 37 to linear peptides of protein X4 of SARS-CoV Urbani [1] | Binding of serum 37 to looped/cyclic peptides of protein X4 of SARS-CoV Urbani [1] | Binding of serum 62 to linear peptides of protein X4 of SARS-CoV Urbani [1] | Binding of serum London to linear peptides of protein X4 of SARS-CoV Urbani [1] | Binding of serum SARS-yellow to looped/cyclic peptides of protein X4 of SARS-CoV Urbani [1]
0.6: Binding of serum 1a to linear peptides of protein X4 of SARS-CoV Urbani [1] | Binding of serum 6 to looped/cyclic peptides of protein X4 of SARS-CoV Urbani [1] | Binding of Control serum Blood-bank to linear peptides [2]
0.3: Binding of serum 6 to linear peptides of protein X4 of SARS-CoV Urbani [1] | Binding of serum London to looped/cyclic peptides of protein X4 of SARS-CoV Urbani [1]
0.9: Binding of serum 1a to looped/cyclic peptides of protein X4 of SARS-CoV Urbani [1] | Binding of serum 62 to looped/cyclic peptides of protein X4 of SARS-CoV Urbani [1] | Binding of Control Serum Blood-Bank to Looped peptides [2]
